# Results taken from patent US8410155B2, “Arylpropionamide, arylacrylamide, arylpropynamide, or arylmethylurea analogs as factor XIA inhibitors” (Bristol-Myers Squibb Company, priority 2006, dated 2013).
# Counter-ions that a name gives are not always drawn.
# Molecular target: T1, purified human Factor XIa (Homo sapiens, UniProt P03951)
# T1 construct: purchased Haematologic Technologies
# Assay: Factor XIa enzyme inhibition assay (chromogenic substrate S-2366)
# Assay type: biochemical
# Conditions: substrate S-2366, 50 mM HEPES pH 7.4
# Protocol: The effectiveness of compounds of the present invention as inhibitors of the coagulation factors XIa, VIIa, IXa, Xa, XIIa, plasma kallikrein or thrombin, can be determined using a relevant purified serine protease, respectively, and an appropriate synthetic substrate. The rate of hydrolysis of the chromogenic or fluorogenic substrate by the relevant serine protease was measured both in the absence and presence of compounds of the present invention. […] A decrease in the rate of absorbance or fluorescence change in the presence of inhibitor is indicative of enzyme inhibition. Such methods are known to one skilled in the art. The results of this assay are expressed as the inhibitory constant, Ki.
# Values of Ki were determined by allowing the protease to react with the substrate in the presence of the inhibitor. Reactions were allowed to go for periods of 20-180 minutes (depending on the protease) and the velocities (rate of absorbance or fluorescence change versus time) were measured. The following relationships were used to calculate Ki values: (vo−vs)/vs=I/(Ki(1+S/Km)) for a competitive inhibitor with one binding site; or vs/vo=A+((B−A)/1+((IC50/(I)^n))) and Ki=IC50/(1+S/Km) for a competitive inhibitor
# T1 sequence (P03951 388-625 limits assumed): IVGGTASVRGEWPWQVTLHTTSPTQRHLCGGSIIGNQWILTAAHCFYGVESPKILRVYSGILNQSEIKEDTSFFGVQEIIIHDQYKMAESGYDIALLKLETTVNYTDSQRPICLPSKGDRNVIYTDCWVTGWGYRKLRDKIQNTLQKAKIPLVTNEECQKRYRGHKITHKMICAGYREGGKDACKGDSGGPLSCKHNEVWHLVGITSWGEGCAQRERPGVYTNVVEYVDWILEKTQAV
# T1 sequence (P03951 19-387 partner limits assumed): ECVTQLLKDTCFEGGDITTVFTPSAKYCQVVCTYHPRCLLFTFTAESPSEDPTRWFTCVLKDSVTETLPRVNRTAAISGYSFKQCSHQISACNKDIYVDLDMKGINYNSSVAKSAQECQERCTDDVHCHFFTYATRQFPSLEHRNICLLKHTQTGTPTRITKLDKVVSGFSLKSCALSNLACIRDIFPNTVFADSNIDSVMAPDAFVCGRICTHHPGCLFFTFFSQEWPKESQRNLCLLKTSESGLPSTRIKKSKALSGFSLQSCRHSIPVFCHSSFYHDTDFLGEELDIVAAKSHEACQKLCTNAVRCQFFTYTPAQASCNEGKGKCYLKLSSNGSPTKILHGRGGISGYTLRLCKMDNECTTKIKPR
row,Ki [nM],SMILES
1,277,"COC(=O)Nc1ccc(-c2c[nH]c(=O)c(CNC(=O)/C=C/c3cc(Cl)ccc3-n3cnnn3)c2)cc1 [Example 8, [4-(5-{[(E)-3-(5-Chloro-2-tetrazol-1-yl-phenyl)-acryloylamino]-methyl}-6-oxo-1,6-dihydro-pyridin-3-yl)-phenyl]-carbamic acid methyl ester]"
2,475,"COC(=O)Nc1ccc(-c2ccnc(CNC(=O)/C=C/c3cc(Cl)ccc3-n3cnnn3)c2)cc1 [Example 7, [4-(2-{[(E)-3-(5-Chloro-2-tetrazol-1-yl-phenyl)-acryloylamino]-methyl}-pyridin-4-yl)-phenyl]-carbamic acid methyl ester, trifluoroacetic acid salt]"
3,27.3,"COC(=O)Nc1ccc(-c2[nH]c(CNC(=O)/C=C/c3cc(Cl)ccc3-n3cnnn3)nc2Cl)cc1 [Example 1, [4-(5-chloro-2-{[(E)-3-(5-chloro-2-tetrazol-1-yl-phenyl)-acryloylamino]-methyl}-1H-imidazol-4-yl)-phenyl]-carbamic acid methyl ester, trifluoroacetic acid salt]"
4,16.8,"COC(=O)Nc1ccc(-c2nc(CNC(=O)CCc3cc(Cl)ccc3-n3cnnn3)[nH]c2Cl)cc1 [Example 2, [4-(5-Chloro-2-{[3-(5-chloro-2-tetrazol-1-yl-phenyl)-propionylamino]-methyl}-1H-imidazol-4-yl)-phenyl]-carbamic acid methyl ester, trifluoroacetic acid salt]"
5,283,"COC(=O)Nc1ccc(-c2cncc(CNC(=O)/C=C/c3cc(Cl)ccc3-n3cnnn3)c2)cc1 [Example 5, [4-(5-{[(E)-3-(5-Chloro-2-tetrazol-1-yl-phenyl)-acryloylamino]-methyl}-pyridin-3-yl)-phenyl]-carbamic acid methyl ester, trifluoroacetic acid salt]"
6,1510,"COC(=O)Nc1ccc(-c2nc(CN(Cc3ccccc3)C(=O)/C=C/c3cc(Cl)ccc3-n3cnnn3)[nH]c2Cl)cc1 [Example 10, {4-[2-({Benzyl-[(E)-3-(5-chloro-2-tetrazol-1-yl-phenyl)-acryloyl]-amino}-methyl)-5-chloro-1H-imidazol-4-yl]-phenyl}-carbamic acid methyl ester, trifluoroacetic acid salt]"
7,1250,"COC(=O)Nc1ccc(-c2cncc(CNC(=O)CCc3cc(Cl)ccc3-n3cnnn3)c2)cc1 [Example 6, [4-(5-{[3-(5-Chloro-2-tetrazol-1-yl-phenyl)-propionylamino]-methyl}-pyridin-3-yl)-phenyl]-carbamic acid methyl ester, trifluoroacetic acid salt]"
8,12.1,"O=C(/C=C/c1cc(Cl)ccc1-n1cnnn1)NCc1nc(-c2ccc3c(c2)CCC(=O)N3)c(Cl)[nH]1 [Example 3, (E)-N-[5-Chloro-4-(2-oxo-1,2,3,4-tetrahydro-quinolin-6-yl)-1H-imidazol-2-ylmethyl]-3-(5-chloro-2-tetrazol-1-yl-phenyl)-acrylamide, trifluoroacetic acid salt]"
